Assay results published in article PMC4666032, “KPT-330, a potent and selective exportin-1 (XPO-1) inhibitor, shows antitumor effects modulating the expression of cyclin D1 and survivin in prostate cancer models” (BMC Cancer, 2015).

Assays:
[1] = test system: PC3 xenografts; experiment: PC3 xenograft in male nude mice; format: in vivo; conditions: for apoptosis in tumors (TUNEL staining) / cell proliferation in tumors (Ki-67 staining): KPT-251 100 mg/kg or KPT-330 10 mg/kg, sectioned tumors, PC3 xenografts (Fig. 7); for tumor weight: PC3 xenografts, PO Mon/Wed/Fri, vs vehicle
From the text: (§1) Male CD1 nude mice (Charles River, Milan, Italy) were maintained under the guidelines established by the University of L’Aquila, Medical School and Science and Technology School Board Regulations. Experiments on animals have been approved by your local IRB in compliance with the Italian government regulation n.116 January 27, 1992 for the use of laboratory animals which is line with ARRIVE guidelines. All mice received subcutaneous flank injections of 1 x 10^6 PC3, DU145 or 22v1 cells. Tumor growth was measured bi-weekly with a Vernier caliper (length x width). Tumor weight was calculated according to the formula: TW (mg) = tumor volume (mm^3) = d2 x D/2, where d and D are the shortest and longest diameters, respectively. The effects of the treatments were examined as previously described. Animals were sacrificed by carbon dioxide inhalation and tumors were subsequently removed surgically. A piece of tumor was frozen in liquid nitrogen for protein analysis and another piece was fixed in paraformaldehyde overnight for immunohistochemical analyses.
Mice were treated by oral gavage with either vehicle control (Pluronic F-68/PVP-K29/32), KPT330 or KPT251. Before tumor injection, animals were randomized into seven treatment groups as follows: Group 1: mice (10 animals) receiving 100 μl vehicle PO; Group 2: mice (10 animals) receiving 100 mg/kg KPT-251 every two days (Monday and Friday)/week PO; Group 3: mice (10 animals) receiving 30 mg/kg KPT-251 every two day/week PO; Group 4: mice (10 animals) receiving 10 mg/kg/day PO; Group 5: mice (10 animals) receiving 30 mg/kg KPT-330 every two days/week PO; Group 6: mice (10 animals) receiving 10 mg/kg KPT-330 every two days/week PO; Group 7: mice (10 animals) receiving 3 mg/kg/day KPT-330 PO. Treatments were started when tumor volumes reached approximately 80 mm^3 (Day 0) and were stopped after 28 days. The following parameters were used to quantify the antitumor effects upon different treatments: (1) tumor volume measured during and at the end of experiments, (2) tumor weight measured at the end of experiment, (3) complete response (CR) defined as the disappearance of the target lesion with respect to baseline, (4) partial response (PR) defined as a reduction of greater than 50 % of tumor volume with respect to baseline, (5) stable disease (SD) defined as a reduction of less than 50 % or an increase of less than 100 % of tumor volume with respect to baseline, (6) tumor progression (TP) defined as an increase of greater than […] of tumor volume with respect to baseline, (7) time to progression (TTP). In vivo, combinational studies were evaluated by CalcuSyn (Biosoft). For the calculation of CI, the values of cell kill for a fixed tumor volume were considered (determined by the log cell kill (LCK)). LCK was determined as LCKZ (TKC)/(3.3KTd), where Td represents the mean control group doubling time required to reach a fixed tumor volume, expressed in days, whereas T and C are the same values as described above.
To determine the effects of XPO-1 inhibition on prostate cancer growth in vivo, we used […] aggressive CRPC, PC3, DU145 and 22rv1, cell lines engrafted in male nude mice. Once tumors were established (80–100 mm3 in size), mice were divided into seven different groups (10 mice/group) and treated with varying doses of KPT-251 (10, 30, 100 mg/kg PO QoDx3) and KPT-330 (5, 10, 20 mg/kg PO QoDx3). Tumors were measured for 35 days. The effects of KPT-251 on tumor growth is shown in Fig. 5 and KPT-330 in Fig. 6. The mean tumor weight was calculated for each treatment group. […]

[2] = test system: 22rv1 xenografts; experiment: 22rv1 xenograft in male nude mice; format: in vivo; conditions: PO Mon/Wed/Fri, vs vehicle
From the text: as §1, with “Animals were sacrificed by carbon dioxide inhalation and tumors were subsequently removed surgically. A piece of tumor was frozen in liquid nitrogen for protein analysis and another piece was fixed in paraformaldehyde overnight for immunohistochemical analyses.” left out
(§2) Mice were treated by oral gavage with either vehicle control (Pluronic F-68/PVP-K29/32), KPT330 or KPT251. […] In vivo, combinational studies were evaluated by CalcuSyn (Biosoft). For the calculation of CI, the values of cell kill for a fixed tumor volume were considered (determined by the log cell kill (LCK)). LCK was determined as LCKZ (TKC)/(3.3KTd), where Td represents the mean control group doubling time required to reach a fixed tumor volume, expressed in days, whereas T and C are the same values as described above. […]

[3] = test system: DU145 xenografts; experiment: DU145 xenograft in male nude mice; format: in vivo; conditions: PO Mon/Wed/Fri, vs vehicle
From the text: as §1, with “Animals were sacrificed by carbon dioxide inhalation and tumors were subsequently removed surgically. A piece of tumor was frozen in liquid nitrogen for protein analysis and another piece was fixed in paraformaldehyde overnight for immunohistochemical analyses.” left out
as §2

[4] = test system: PC3, DU145 and 22rv1; experiment: Molecular changes by immunoblots, ELISA and immunocytochemistry; format: cell-based, human
Procedure: (§3) Cytoplasmic and nuclear protein extracts were obtained by using the Nuclear/Cytosol Fractionation Kit from Biovision Inc. (Milpitas, CA, USA). Cell extracts and conditioned media from treated and untreated cells were electrophoresed under reducing conditions and transferred to nitrocellulose filter (Schleicher and Schuell GmbH, Dassel, Germany). Non specific binding sites were blocked for 1 h in 5 % non-fat dried milk in a Tris buffer containing 20 mM Tris and 137 mM NaCl (pH 7.6). Blots were incubated with 1 μg/ml of primary antibody diluted in blocking solution for 1 h at room temperature, washed and then incubated for 1 h in secondary antibody diluted 1:3000 in blocking solution. Following an additional wash, reactive bands were visualized by a chemiluminescent detection kit (Supersignal, Perbio Science, Tattenhall, UK) using Bio-Rad gel Doc™ (Bio-Rad Laboratories S.r.l., Milan, Italy).
(§4) The molecular pathways that are induced by XPO-1 inhibition were evaluated by immunoblots, ELISA and immunocytochemical analyses performed in PC3, DU145 and 22rv1 as models of CRPC using 100 nM KPT-330 as reference compound. The effects were monitored in early and chronic treatments. […] In Fig. 3a, we show representative western blots for nuclear and cytoplasm expression of cyclin D1 and XPO-1 in PC3 cell extracts after 2–12 hr of treatment with KPT-330. […] In addition, prolonged treatment with KPT-330 determined a reduction of cyclin D1 protein expression in DU145 cell lines (Fig. 3c). Increased nuclear expression of FOXO3a is visible also by IHC (Fig. 3e) in 22rv1 cells treated with KPT-330. […] Therefore, the inhibition of XPO-1-mediated export machinery may enhance AR signaling (manuscript in preparation). […] Although proteasome inhibitors are considered for treatment of solid tumors, these compounds could reduce the effectiveness of selinexor, requiring further investigation.

[5] = test system: 22rv1 cells; experiment: Western blot of nuclear proteins; format: cell-based, human; conditions: 100 nM
Procedure: as §3, §4

[6] = test system: PC3 cells; experiment: Western blot of nuclear proteins; format: cell-based, human; conditions: 100 nM, 2-12 hrs
Procedure: as §3, §4

[7] = test system: models of aggressive PCa; experiment: In vivo models of aggressive PCa (xenograft not specified); parameters: species or system mice
From the text: as §1, with “Animals were sacrificed by carbon dioxide inhalation and tumors were subsequently removed surgically. A piece of tumor was frozen in liquid nitrogen for protein analysis and another piece was fixed in paraformaldehyde overnight for immunohistochemical analyses.” left out
Mice were treated by oral gavage with either vehicle control (Pluronic F-68/PVP-K29/32), KPT330 or KPT251. […] In vivo, combinational studies were evaluated by CalcuSyn (Biosoft). For the calculation of CI, the values of cell kill for a fixed tumor volume were considered (determined by the log cell kill (LCK)). LCK was determined as LCKZ (TKC)/(3.3KTd), where Td represents the mean control group doubling time required to reach a fixed tumor volume, expressed in days, whereas T and C are the same values as described above.

Row | Structure (SMILES) | apoptosis in tumors (TUNEL staining) [1] | cell proliferation in tumors (Ki-67 staining) [1] | tumor weight [1] | tumor weight [2] | tumor weight [3] | cell cycle distribution ([4]; 100 nM, 24, 48 and 72 hrs) | XPO-1 localization, early treatment ([4]; 100 nM, early treatment) | cyclin D1 cytosolic levels ([4]; 100 nM, early treatment) | cyclin D1 nuclear expression ([4]; 100 nM, early treatment) | XPO-1 protein levels, prolonged treatment ([4]; 100 nM, prolonged treatments) | nuclear export of survivin ([4]; PCa cell lines, Western blots and ELISAs, 100 nM) | total expression of AR, prolonged exposure ([5]; 22rv1 cells, prolonged exposure) | nuclear expression of p53 and MDM2 ([5]; AR+/p53wt 22rv1 cells) | nuclear expression of AR ([5]; AR+/p53wt 22rv1 cells, early) | nuclear FOXO, p21, p27, cyclin B1 [6] | antitumor effects compared to KPT-251 ([7]; at similar dosage) | tumor volume relative to docetaxel-treated animals ([7]; internal control docetaxel, data not shown)
1 | FC(F)(F)c1cc(-c2ncn(/C=C\c3nnco3)n2)cc(C(F)(F)F)c1 [KPT-251] | increased apoptosis | decreased cell proliferation | reduce tumor weight in a dose-dependent manner | reduce tumor weight in a dose-dependent manner | reduce tumor weight in a dose-dependent manner |  |  |  |  |  |  |  |  |  |  |  | 
2 | O=C(/C=C\n1cnc(-c2cc(C(F)(F)F)cc(C(F)(F)F)c2)n1)NNc1cnccn1 [KPT-330] | increased apoptosis | decreased cell proliferation | reduce tumor weight in a dose-dependent manner | reduce tumor weight in a dose-dependent manner | reduce tumor weight in a dose-dependent manner | accumulation of cells in the G1 cell cycle phase with loss of cells in the S and G2/M phase | early XPO-1 nuclear accumulation | strongly reduced | increased | dramatically reduced | reduced | significantly reduced | increased | increased | nuclear accumulation | better antitumor effects | approximately one-third
